Assay results as given in publication PMC8438977, “Isolation of bioactive compounds from medicinal plants used in traditional medicine: Rautandiol B, a potential lead compound against Plasmodium falciparum” (BMC Complementary Medicine and Therapies, 2021).
Converted amounts (≈) assume the structure as drawn. Read-outs that look alike come from different tables or passages of the source.

Assays:
[1] = tested on: Plasmodium falciparum TM4/8.2; test: Antimalaria assay, [3H] hypoxanthine incorporation, TM4/8.2 strain; format: cell-based
Method: (§1) Plasmodium falciparum TM4/8.2 and K1CB1 strains were maintained in RPMI 1640 medium supplemented with 8% human serum, 2.5 mM HEPES and 2 g/L sodium bicarbonate. Parasite cultures were incubated at 37 °C in a 3% CO2 incubator. The crude extracts/pure compounds were tested against TM4/8.2 and K1CB1 P. falciparum in vitro by the modified [^3H] hypoxanthine incorporation assay. Briefly, stock solutions of the crude extracts or pure compounds were prepared in DMSO. Various concentrations of the samples were incubated with malaria parasites with a final volume of 225 μL, 1% parasitemia, 1.5% hematocrit, 0.1% dimethylsulfoxide (DMSO) in 96-well plates. Plates were incubated for 16–18 h. Then, 25 μL [^3H]-hypoxanthine solution was added and incubated for 20 h. The parasites were harvested onto a UniFilter-96 GF/B plate (PerkinElmer, USA). The filters in the plates were air-dried, and then 25 μL of liquid scintillation fluid (Microscint, Packard) was added. The radioactivity was then measured using a microplate scintillation counter (TopCount, Packard). The IC50 values of the crude extracts/ pure compounds were determined.

[2] = tested on: Mycobacterium tuberculosis H37Rv (ATCC 27294); test: Mycobacterium tuberculosis assay (Microplate Alamar Blue Assay, MIC); format: cell-based; settings: pure compounds and controls, read-out: MTB H37Rv (MIC μM)
[3] = tested on: Plasmodium falciparum K1CB1; test: Antimalaria assay, [3H] hypoxanthine incorporation, K1CB1 strain; format: cell-based; settings: for IC50: Plasmodium falciparum, read-out: P. f (IC50 μM) K1CB1
Method: as §1

α-glucosidase (AG) = molecular target: T1, α-glucosidase (AG) (Saccharomyces cerevisiae, UniProt P53341); test: biochemical; design: species or system S. cerevisiae; settings: for inhibition at 250 µg/mL: samples 250 μg/mL in 50% DMSO, read-out: % Inhibition (AGI activity); for IC50: in 50% DMSO
T1 construct: purchased Sigma
Method: AGI values of extracts and pure phytochemicals were quantitatively determined in a 96-well plastic plate according to the method described by Nguyen et al.. The enzyme was incubated with the samples dissolved in DMSO for 5 min before adding the substrate. The inhibition was measured spectrophotometrically in 20 mM sodium phosphate buffer pH 6.0 at 37 °C using 3.0 mM p-nitrophenyl α-D-glucopyranoside (Sigma) as the substrate and 0.25 units/mL of AG from S. cerevisiae (Sigma). The absorbance at 405 nm was measured using a microplate reader (BioTek ELx808 microplate reader, USA).

[4] = tested on: T. brucei rhodesiense (STIB-900); test: Anti-trypanosomal assay (Alamar Blue, 72 h); format: cell-based, Trypanosoma brucei rhodesiense
Method: T. brucei rhodesiense (STIB-900) was maintained in Minimal Essential Medium (MEM) with Earle’s salts supplemented with 3 g/L sodium bicarbonate, 4.5 g/L glucose, 25 mM HEPES, pH 7.3, 0.05 mM bathocuproinedisulfonic acid disodium salt, 1.5 mM L-cysteine, 1 mM hypoxanthine, 0.16 mM thymidine, 1 mM sodium pyruvate, 0.2 mM 2-mercaptoethanol, 1% MEM non-essential amino acid, and 15% heated fetal bovine serum, at 37 °C in a 5% CO2 incubator. To assay anti-Tbr activity, a modified reported protocol was used. Briefly, 2 × 10^4 T. brucei rhodesiense parasites in 175 μL culture media were incubated with 25 μL of varying concentrations of each compound in a 96-well plate under the same culture conditions. Following 72 h incubation, 20 μL Alamar Blue (a resazurin solution) was added in each well. The mixture was further incubated for 3 h. The fluorescence signals were measured by a spectrofluorometer at ex530/em585 nm.

BHK21 cells = tested on: BHK21 cells; design: method as in PMID 32798746; settings: cited from earlier work
VERO cells = tested on: VERO cells; design: method as in PMID 32798746; settings: cited from earlier work
[5] = earlier reports; cited from earlier work
[6] = pure compounds and controls, strain TM4/8.2, read-out: P. f (IC50 μM) TM4/8.2
[7] = pure compounds and controls, strain K1CB1
[8] = read-out: P. f (IC50 μM) TM4/8.2
[9] = Trypanosoma brucei, RHODESIENSE; pure compounds and control; 72 h; read-out: T. br (IC50 μM)
[10] = Trypanosoma brucei, RHODESIENSE, 72 h, pure compounds and control; 72 h; read-out: T. br (IC50 μM)
[11] = pure compounds and control; 72 h; read-out: T. br (IC50 μM)

T1 sequence (P53341 whole entry): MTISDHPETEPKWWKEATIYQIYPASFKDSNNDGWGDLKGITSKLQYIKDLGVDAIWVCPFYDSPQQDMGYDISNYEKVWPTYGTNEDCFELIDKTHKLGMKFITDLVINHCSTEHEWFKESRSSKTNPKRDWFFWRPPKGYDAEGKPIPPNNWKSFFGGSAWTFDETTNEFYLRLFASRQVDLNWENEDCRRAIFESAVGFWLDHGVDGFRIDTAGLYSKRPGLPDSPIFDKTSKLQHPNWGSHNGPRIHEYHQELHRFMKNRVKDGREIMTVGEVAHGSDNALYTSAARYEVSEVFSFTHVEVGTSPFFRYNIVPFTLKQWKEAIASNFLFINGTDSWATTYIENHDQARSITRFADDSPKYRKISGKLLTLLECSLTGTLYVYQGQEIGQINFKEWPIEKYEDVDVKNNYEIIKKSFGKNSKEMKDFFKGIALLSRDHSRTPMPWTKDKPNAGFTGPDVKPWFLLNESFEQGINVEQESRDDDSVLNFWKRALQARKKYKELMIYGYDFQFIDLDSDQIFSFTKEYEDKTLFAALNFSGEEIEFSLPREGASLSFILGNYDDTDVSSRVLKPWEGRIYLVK

## O=C1c2cc3ccoc3cc2O[C@]2(O)COc3cc4c(cc3[C@H]12)OCO4 [Compound 13, 12a-hydroxydolineon]
other
  melting point: 155 to 156 °C

## COc1ccc(C2COc3cc4occc4cc3C2=O)c(OC)c1OC (centres unmarked) [Compound 16, nepseudin]
[1]; [6]
  IC50: > 28.2 µM
[2]
  MIC: > 56.4 µM
[3]; [7]
  IC50: > 28.2 µM

## CO[C@H]1/C=C/O[C@@]2(C)Oc3c(C)c(O)c4c(O)c(c(/C=N/N5CCN(C)CC5)c(O)c4c3C2=O)NC(=O)/C(C)=C\C=C\[C@H](C)[C@H](O)[C@@H](C)[C@@H](O)[C@@H](C)[C@H](OC(C)=O)[C@@H]1C [Rifampin, reference compound]
[2]
  MIC: 0.08 µM (≈ 0.0658 µg/mL)

## COc1ccc2c(c1)OCC(c1cc3c(cc1OC)OCO3)C2=O (centres unmarked) [Compound 12, 7-methoxy-3-(6-methoxybenzo [d] [1,3]dioxol-5-yl) chroman-4-one]
α-glucosidase (AG)
  inhibition at 250 µg/mL: 17.7 ± 0.3%
other
  melting point: 133 to 135 °C

## O=C1c2cc3ccoc3cc2O[C@@H]2COc3cc4c(cc3[C@H]12)OCO4 [Compound 14, dolineon]
[1]; [8]
  IC50: > 29.6 µM
[2]
  MIC: > 59.9 µM
[3]
  IC50: > 29.6 µM
[4]; [9]
  IC50: 18.7 ± 3.2 µM
α-glucosidase (AG)
  IC50: 660 µM
  inhibition at 250 µg/mL: 54.2 ± 8.9%

## CC(C)(O)C1Cc2cc3c(cc2O1)OC[C@H]1c2ccc(O)cc2O[C@@H]31 (some centres unmarked) [Compound 24, rautandiol B]
BHK21 cells
  cytotoxicity on BHK21 cells: non-cytotoxic
VERO cells
  cytotoxicity on VERO cells: non-cytotoxic
[1]; [6]
  IC50: 0.4 ± 0.07 µM
[2]
  MIC: > 20 µM
[3]; [7]
  IC50: 0.74 ± 0.29 µM
[3]; safety ratio
  SR (safety ratio), P. falciparum K1CB1: 133
[4]; [10]
  IC50: 23.5 ± 1.59 µM
α-glucosidase (AG)
  inhibition at 250 µg/mL: 29.3 ± 3.1%
other
  melting point: 209 to 213 °C

## COc1cc2c(cc1O)[C@H]1Oc3cc4c(cc3[C@H]1CO2)OCO4 [Compound 19, (−)-2-hydroxypterocarpin]
[1]; [6]
  IC50: > 28.4 µM
[2]
  MIC: > 56.8 µM
[3]; [7]
  IC50: > 28.4 µM
other
  melting point: 223 to 225 °C

## NNC(=O)c1ccncc1 [Isoniazid, reference compound]
[2]
  MIC: 0.02 µM (≈ 0.00274 µg/mL)

## COc1cc2c(cc1-c1coc3cc4occc4cc3c1=O)OCO2 [Compound 22, dehydroneotenone]
[1]; [6]
  IC50: > 30.9 µM
[2]
  MIC: > 61.7 µM
[3]; [7]
  IC50: > 30.9 µM

## CC1(C)Oc2cc3c(cc2CC1O)[C@@H]1Oc2cc(O)ccc2[C@@H]1CO3 (some centres unmarked) [Compound 23, rautandiol A]
α-glucosidase (AG)
  IC50: 280 µM
  inhibition at 250 µg/mL: 83.9 ± 1%
other
  melting point: 194 to 196 °C

## COc1cc2c(cc1C1COc3cc4occc4cc3C1=O)OCO2 (centres unmarked) [Compound 11, neotenone]
[1]; [6]
  IC50: > 31 µM
[2]
  MIC: > 62 µM
[3]; [7]
  IC50: > 31 µM
[4]; [10]
  IC50: 17 ± 1.83 µM
other
  melting point: 174 to 175 °C

## CC(C)=CCc1cc2c(cc1O)OC[C@H]1c3cc4c(cc3O[C@@H]21)OCO4
[4]
  SR (safety ratio), T. brucei rhodesiense: > 5.83
[4]; [11]
  IC50: 4.87 ± 0.49 µM

## CCc1nc(N)nc(N)c1-c1ccc(Cl)cc1 [Pyrimethamine, reference compound]
[1]; [6]
  IC50: 0.095 ± 0.02 µM
[3]; [7]
  IC50: 23.2 ± 2.24 µM

## N=C(N)c1ccc(OCCCCCOc2ccc(C(=N)N)cc2)cc1 [Pentamidine, reference compound]
[4]; [10]
  IC50: 0.007 ± 4e-05 µM

## O=c1c(O)c(-c2ccc(O)cc2)oc2cc(O)cc(O)c12 [Compound 1, kempherol]
[1]; [6]
  IC50: > 50 µM
[2]
  MIC: > 20 µM
[3]; [7]
  IC50: > 50 µM
[4]; [10]
  IC50: 10.3 ± 0.38 µM
[4]; [11]
  IC50: 8.74 ± 0.49 µM
[4]; safety ratio
  SR (safety ratio), T. brucei rhodesiense: 3.3

## C=C(C)C1Cc2c(ccc3c2O[C@@H]2COc4cc(OC)c(OC)cc4[C@]2(O)C3=O)O1 (some centres unmarked) [Compound 21, 12a-hydroxyrotenone]
[1]; [8]
  IC50: > 27.6 µM
[2]
  MIC: > 55.2 µM
[3]
  IC50: > 27.6 µM
[4]; [9]
  IC50: 8.63 ± 1.14 µM
α-glucosidase (AG)
  inhibition at 250 µg/mL: 19.9 ± 11.4%
[5]
  cytotoxicity: cytotoxic

## OC[C@H]1O[C@@H](OCCc2ccc(O)cc2)[C@H](O)[C@@H](O)[C@@H]1O [Compound 4, salidroside]
[1]; [6]
  IC50: > 100 µM
[2]
  MIC: > 20 µM
[3]; [7]
  IC50: > 100 µM
[4]; [10]
  IC50: > 100 µM
α-glucosidase (AG)
  IC50: 1380 µM
  inhibition at 250 µg/mL: 47.7 ± 1.8%

## C=C(C)[C@H]1Cc2c(ccc3c2O[C@@H]2COc4cc(OC)c(OC)cc4[C@@H]2C3=O)O1 [Compound 20, rotenone]
[1]; [8]
  IC50: > 26.2 µM
[2]
  MIC: > 52.3 µM
[3]
  IC50: > 26.2 µM
[4]; Trypanosoma brucei, RHODESIENSE, 72 h, read-out: T. br (IC50 μM)
  IC50: 7.51 ± 0.17 µM
[5]
  cytotoxicity: cytotoxic

## CC(C)=CCc1cc2c(cc1O)OC[C@@H]1c3cc4c(cc3O[C@H]21)OCO4 [Compound 15, (−)-2-isopentenyl-3-hydroxy-8-9-methylenedioxypterocarpan]
[1]; [6]
  IC50: > 28.4 µM
[2]
  MIC: > 56.8 µM
[3]; [7]
  IC50: > 28.4 µM
[4]; [10]
  IC50: 4.87 ± 0.49 µM
[4]; safety ratio
  SR (safety ratio), T. brucei rhodesiense: > 5.83
α-glucosidase (AG)
  inhibition at 250 µg/mL: 31.5 ± 2.1%

## COc1cc2c(cc1-c1cc3cc4ccoc4cc3oc1=O)OCO2 [Compound 10, pachyrrhizine]
[1]; [8]
  IC50: > 32.3 µM
[2]
  MIC: > 64.7 µM
[3]
  IC50: > 32.3 µM

## c1cc2cc3c(cc2o1)OC[C@H]1c2cc4c(cc2O[C@@H]31)OCO4 [Compound 6, neodulin]
[1]; [6]
  IC50: > 32.5 µM
[2]
  MIC: > 64.9 µM
[3]; [7]
  IC50: > 32.5 µM

## CC1(C)N=C(N)N=C(N)N1c1ccc(Cl)cc1 [Cycloguanil, reference compound]
[1]; [6]
  IC50: 0.076 ± 0.016 µM
[3]; [7]
  IC50: 10.7 ± 1.62 µM

## c1cc2cc3c(cc2o1)OCc1c-3oc2cc3c(cc12)OCO3 [Compound 5, neoduleen]
[1]; [6]
  IC50: > 31 µM
[2]
  MIC: > 62.1 µM
[3]; [7]
  IC50: > 31 µM

## O=c1c(O)c(-c2ccc(O)c(O)c2)oc2cc(O)cc(O)c12 [Compound 2, quercetin]
[1]; [6]
  IC50: > 50 µM
[2]
  MIC: > 20 µM
[3]; [7]
  IC50: > 50 µM
[4]; [10]
  IC50: 8.44 ± 0.16 µM
[4]; [11]
  IC50: 8.91 ± 0.03 µM
[4]; safety ratio
  SR (safety ratio), T. brucei rhodesiense: 4.52
